Test results taken from ChEMBL document CHEMBL4346688, “Discovery of novel mutant-combating ALK and ROS1 dual inhibitors bearing imidazolidin-2-one moiety with reasonable PK properties” (Eur J Med Chem, 2019).
Each block holds one molecule with its values, some of them ahead of it. Active and inactive are the calls of the source. No cut-off for these calls is given here.

What was measured:
[1] = molecular target: T1, Proto-oncogene tyrosine-protein kinase ROS (Homo sapiens, UniProt P08922)
Description: Inhibition of N-terminal GST-tagged human ROS1 cytoplasmic domain (1883 to 2347 residues) expressed in Baculovirus expression system using IRS1 as substrate incubated for 1 hr by mobility shift assay

KARPAS-299 = assay: cells; settings: Homo sapiens, KARPAS-299, 72 h
Description: Cytotoxicity against human KARPAS299 cells incubated for 72 hrs by MTT assay

BaF3 [2] = assay: cells; settings: Mus musculus, BaF3, 72 h
NCI-H2228 = assay: cells; settings: Homo sapiens, NCI-H2228, 72 h
Description: Cytotoxicity against human NCI-H2228 cells incubated for 72 hrs by MTT assay

[3] = molecular target: ALK tyrosine kinase receptor (Homo sapiens, UniProt Q9UM73, G1202R)
Sequence of ALK tyrosine kinase receptor (Homo sapiens, UniProt Q9UM73, G1202R) (Q9UM73 19-1620 G1202R limits assumed): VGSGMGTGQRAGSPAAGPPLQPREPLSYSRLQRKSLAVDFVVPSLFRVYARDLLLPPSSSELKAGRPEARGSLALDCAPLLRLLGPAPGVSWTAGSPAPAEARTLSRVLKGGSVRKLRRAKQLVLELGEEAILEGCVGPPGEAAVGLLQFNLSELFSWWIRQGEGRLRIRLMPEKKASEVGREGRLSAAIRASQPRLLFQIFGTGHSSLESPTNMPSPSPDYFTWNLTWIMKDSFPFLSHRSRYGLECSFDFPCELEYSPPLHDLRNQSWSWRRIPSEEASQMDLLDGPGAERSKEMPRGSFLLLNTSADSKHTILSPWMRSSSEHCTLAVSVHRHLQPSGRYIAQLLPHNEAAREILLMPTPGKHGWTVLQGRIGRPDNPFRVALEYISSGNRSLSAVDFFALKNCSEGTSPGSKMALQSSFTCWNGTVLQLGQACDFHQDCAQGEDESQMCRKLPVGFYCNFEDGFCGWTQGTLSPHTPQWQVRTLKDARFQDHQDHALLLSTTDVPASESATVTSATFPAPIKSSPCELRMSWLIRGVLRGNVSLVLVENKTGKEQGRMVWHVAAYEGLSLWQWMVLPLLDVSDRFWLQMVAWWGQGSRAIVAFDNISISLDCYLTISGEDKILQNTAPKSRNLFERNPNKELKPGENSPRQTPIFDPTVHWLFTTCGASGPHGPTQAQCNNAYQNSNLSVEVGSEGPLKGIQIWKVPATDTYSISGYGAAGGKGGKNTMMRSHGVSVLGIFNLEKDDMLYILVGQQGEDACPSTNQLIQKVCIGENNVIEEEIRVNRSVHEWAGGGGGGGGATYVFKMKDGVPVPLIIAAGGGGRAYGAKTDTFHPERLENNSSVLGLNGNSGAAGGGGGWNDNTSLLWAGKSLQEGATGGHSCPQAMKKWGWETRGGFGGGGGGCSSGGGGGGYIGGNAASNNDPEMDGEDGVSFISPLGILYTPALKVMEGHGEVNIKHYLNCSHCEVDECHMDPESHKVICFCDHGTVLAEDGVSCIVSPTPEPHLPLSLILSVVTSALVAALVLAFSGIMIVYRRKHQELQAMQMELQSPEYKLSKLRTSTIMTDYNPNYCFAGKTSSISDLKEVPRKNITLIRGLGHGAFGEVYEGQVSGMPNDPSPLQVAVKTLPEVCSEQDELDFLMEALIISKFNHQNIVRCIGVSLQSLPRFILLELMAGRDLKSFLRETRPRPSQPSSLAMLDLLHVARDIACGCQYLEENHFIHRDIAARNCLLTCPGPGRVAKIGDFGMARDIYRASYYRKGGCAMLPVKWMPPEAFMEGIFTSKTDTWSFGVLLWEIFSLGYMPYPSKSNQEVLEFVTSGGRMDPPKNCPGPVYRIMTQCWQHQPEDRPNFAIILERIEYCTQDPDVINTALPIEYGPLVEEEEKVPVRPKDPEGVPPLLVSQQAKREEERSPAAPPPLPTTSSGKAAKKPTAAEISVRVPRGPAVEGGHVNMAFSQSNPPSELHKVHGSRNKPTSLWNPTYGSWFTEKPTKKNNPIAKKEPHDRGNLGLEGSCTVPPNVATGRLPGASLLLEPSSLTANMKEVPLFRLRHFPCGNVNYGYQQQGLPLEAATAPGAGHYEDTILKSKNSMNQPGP

A549 [4] = assay: cells; settings: Homo sapiens, A549, 72 h
[5] = molecular target: Epidermal growth factor receptor (Homo sapiens, UniProt P00533)
Sequence of Epidermal growth factor receptor (P00533 whole entry): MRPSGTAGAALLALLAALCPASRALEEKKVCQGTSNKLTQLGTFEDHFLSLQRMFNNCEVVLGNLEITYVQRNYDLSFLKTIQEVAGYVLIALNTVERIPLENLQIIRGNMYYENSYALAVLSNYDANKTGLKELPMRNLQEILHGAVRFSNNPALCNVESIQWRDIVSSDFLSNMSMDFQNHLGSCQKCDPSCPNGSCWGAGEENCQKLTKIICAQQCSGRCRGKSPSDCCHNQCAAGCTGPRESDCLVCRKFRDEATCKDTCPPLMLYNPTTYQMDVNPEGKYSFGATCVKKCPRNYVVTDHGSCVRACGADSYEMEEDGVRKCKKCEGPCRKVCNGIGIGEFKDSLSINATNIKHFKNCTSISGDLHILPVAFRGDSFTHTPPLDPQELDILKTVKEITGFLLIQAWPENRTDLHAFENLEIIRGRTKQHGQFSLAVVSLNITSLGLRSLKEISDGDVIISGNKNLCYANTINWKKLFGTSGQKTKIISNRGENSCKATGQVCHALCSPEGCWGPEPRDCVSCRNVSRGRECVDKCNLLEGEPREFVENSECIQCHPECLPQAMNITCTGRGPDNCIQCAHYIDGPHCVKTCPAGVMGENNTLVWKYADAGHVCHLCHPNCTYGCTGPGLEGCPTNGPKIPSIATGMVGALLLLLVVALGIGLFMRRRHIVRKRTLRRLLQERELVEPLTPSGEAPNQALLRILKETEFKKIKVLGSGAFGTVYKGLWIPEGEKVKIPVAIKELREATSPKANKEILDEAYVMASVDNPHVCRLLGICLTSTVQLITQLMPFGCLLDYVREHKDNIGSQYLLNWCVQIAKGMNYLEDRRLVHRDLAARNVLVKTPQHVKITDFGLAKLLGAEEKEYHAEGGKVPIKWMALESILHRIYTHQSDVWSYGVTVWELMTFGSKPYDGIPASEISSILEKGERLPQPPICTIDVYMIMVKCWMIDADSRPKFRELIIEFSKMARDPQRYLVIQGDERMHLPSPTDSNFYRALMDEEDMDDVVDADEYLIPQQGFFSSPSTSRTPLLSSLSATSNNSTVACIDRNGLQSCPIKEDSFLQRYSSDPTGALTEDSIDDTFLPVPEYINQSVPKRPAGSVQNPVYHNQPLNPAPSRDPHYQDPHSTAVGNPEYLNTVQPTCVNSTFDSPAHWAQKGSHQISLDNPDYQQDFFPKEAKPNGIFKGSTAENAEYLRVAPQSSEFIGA
Description: Inhibition of N-terminal GST-tagged human EGFR cytoplasmic domain (669 to 1210 residues) expressed in Baculovirus expression system using srctide as substrate incubated for 1 hr by mobility shift assay

HCC78 = assay: cells; settings: Homo sapiens, HCC78, 72 h
Description: Cytotoxicity against human HCC78 cells incubated for 72 hrs by MTT assay

A549 [6] = assay: cells; settings: Homo sapiens, A549, 72 h; remark: listed apart in the source
Description: Cytotoxicity against human A549 cells incubated for 72 hrs by MTT assay

[7] = molecular target: T2, ALK tyrosine kinase receptor (Homo sapiens, UniProt Q9UM73)
Target sequence in this assay (Q9UM73 whole entry): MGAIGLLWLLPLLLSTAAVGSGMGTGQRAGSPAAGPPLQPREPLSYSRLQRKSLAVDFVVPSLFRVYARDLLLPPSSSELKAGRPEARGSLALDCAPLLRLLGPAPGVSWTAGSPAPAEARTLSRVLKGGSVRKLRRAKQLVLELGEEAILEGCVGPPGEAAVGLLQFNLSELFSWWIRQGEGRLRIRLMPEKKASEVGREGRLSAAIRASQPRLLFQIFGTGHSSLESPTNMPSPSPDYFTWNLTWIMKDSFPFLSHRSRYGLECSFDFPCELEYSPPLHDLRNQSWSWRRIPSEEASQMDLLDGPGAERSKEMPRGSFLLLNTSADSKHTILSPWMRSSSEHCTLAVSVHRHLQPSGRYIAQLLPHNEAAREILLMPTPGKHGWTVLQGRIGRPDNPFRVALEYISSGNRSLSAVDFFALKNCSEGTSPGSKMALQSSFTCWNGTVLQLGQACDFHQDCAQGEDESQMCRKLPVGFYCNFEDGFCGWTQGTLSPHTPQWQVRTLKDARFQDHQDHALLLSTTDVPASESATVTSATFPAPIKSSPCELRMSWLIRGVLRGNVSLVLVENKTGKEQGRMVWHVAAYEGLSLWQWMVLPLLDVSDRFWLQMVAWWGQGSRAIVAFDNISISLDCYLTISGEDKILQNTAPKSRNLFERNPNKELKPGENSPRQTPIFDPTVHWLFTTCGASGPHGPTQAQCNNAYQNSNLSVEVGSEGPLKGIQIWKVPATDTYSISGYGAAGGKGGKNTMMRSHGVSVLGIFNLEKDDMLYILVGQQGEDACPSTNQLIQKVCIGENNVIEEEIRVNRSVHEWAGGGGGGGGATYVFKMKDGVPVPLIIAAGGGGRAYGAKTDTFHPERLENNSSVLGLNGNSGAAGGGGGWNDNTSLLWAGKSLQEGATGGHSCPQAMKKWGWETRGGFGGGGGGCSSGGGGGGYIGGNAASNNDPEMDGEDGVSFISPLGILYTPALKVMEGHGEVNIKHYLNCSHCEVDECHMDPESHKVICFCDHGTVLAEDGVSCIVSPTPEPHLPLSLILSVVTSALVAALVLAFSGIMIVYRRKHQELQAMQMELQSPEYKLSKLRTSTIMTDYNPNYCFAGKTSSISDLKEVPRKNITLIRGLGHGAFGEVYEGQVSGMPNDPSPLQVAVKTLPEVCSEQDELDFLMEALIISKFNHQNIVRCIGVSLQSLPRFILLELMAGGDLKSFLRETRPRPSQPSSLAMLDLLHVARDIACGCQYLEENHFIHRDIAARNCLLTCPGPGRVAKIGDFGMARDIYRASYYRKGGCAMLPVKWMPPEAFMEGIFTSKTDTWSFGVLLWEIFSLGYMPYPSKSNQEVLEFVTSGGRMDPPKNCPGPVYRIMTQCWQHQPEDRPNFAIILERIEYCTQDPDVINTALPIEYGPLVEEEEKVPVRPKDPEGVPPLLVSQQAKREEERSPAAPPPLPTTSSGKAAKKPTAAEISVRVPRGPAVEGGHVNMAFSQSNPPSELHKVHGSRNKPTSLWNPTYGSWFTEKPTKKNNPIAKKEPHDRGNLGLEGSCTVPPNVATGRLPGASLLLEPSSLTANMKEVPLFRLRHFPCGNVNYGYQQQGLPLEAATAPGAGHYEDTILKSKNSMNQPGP
Description: Inhibition of N-terminal GST-tagged human ALK cytoplasmic domain (1058 to 1620 residues) expressed in Baculovirus expression system using srctide as substrate incubated for 1 hr by mobility shift assay

[8] = molecular target: ALK tyrosine kinase receptor (Homo sapiens, UniProt Q9UM73, L1196M)
Sequence of ALK tyrosine kinase receptor (Homo sapiens, UniProt Q9UM73, L1196M) (Q9UM73 19-1620 L1196M limits assumed): as the sequence (Q9UM73 19-1620 G1202R limits assumed) above, with L1178M, R1184G counted along it

BaF3 [9] = assay: cells; settings: Mus musculus, BaF3, 72 h; remark: listed apart in the source
Description: Cytotoxicity against mouse BA/F3 cells incubated for 72 hrs by MTT assay

[10] = molecular target: Insulin-like growth factor 1 receptor (Homo sapiens, UniProt P08069); assay: Inhibition of N-terminal GST-tagged human IGF1R cytoplasmic domain (959 to 1367 residues) expressed in baculovirus expression system using IRS1 as substrate incubated for 1 hr by mobility shift assay
[11] = molecular target: Cyclin-dependent kinase 4 (Homo sapiens, UniProt P11802); assay: Inhibition of N-terminal GST-tagged full length human CDK4 (1 to 303 residues) expressed in Baculovirus expression system using DYRKtide F as substrate incubated for 1 hr by mobility shift assay
Sequence of Cyclin-dependent kinase 4 (P11802 whole entry, the tested form may be a part): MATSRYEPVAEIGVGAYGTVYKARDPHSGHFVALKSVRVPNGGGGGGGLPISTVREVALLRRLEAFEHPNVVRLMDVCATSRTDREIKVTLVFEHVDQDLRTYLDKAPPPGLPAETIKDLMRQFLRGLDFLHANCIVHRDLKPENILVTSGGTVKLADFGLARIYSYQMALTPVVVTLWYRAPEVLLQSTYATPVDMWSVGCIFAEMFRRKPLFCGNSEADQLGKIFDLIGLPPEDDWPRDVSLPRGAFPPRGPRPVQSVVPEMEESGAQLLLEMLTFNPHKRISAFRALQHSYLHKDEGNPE

[12] = Inhibition of PI3K (unknown origin) incubated for 1 hr by mobility shift assay; set-up: species or system Homo sapiens
[13] = AUCt in Sprague-Dawley rat at 10 mg/kg, po by UPLC/MS/MS analysis; format: ADME, organism-based; settings: in vivo
[14] = Half life in Sprague-Dawley rat at 10 mg/kg, po by UPLC/MS/MS analysis; format: ADME, organism-based; settings: in vivo
[15] = AUCinfinity in Sprague-Dawley rat at 2 mg/kg, iv by UPLC/MS/MS analysis; format: ADME, organism-based; set-up: dose 2 mg/kg, route intravenous, time infinity; settings: in vivo
[16] = molecular target: T2, ALK tyrosine kinase receptor; assay: Inhibition of ALK phosphorylation in human H2228 cells at 100 uM incubated for 24 hrs by Western blot analysis; format: cell-based
Target sequence in this assay (Q9UM73 19-1620 limits assumed): as the sequence (Q9UM73 19-1620 G1202R limits assumed) above, with R1184G counted along it

[17] = Cmax in Sprague-Dawley rat at 2 mg/kg, iv by UPLC/MS/MS analysis; format: ADME, organism-based; set-up: dose 2 mg/kg, route intravenous; settings: in vivo
[18] = molecular target: Tyrosine-protein kinase BTK (Homo sapiens, UniProt Q06187); assay: Inhibition of N-terminal GST-tagged full length human BTK (2 to 659 residues) expressed in Baculovirus expression system using srctide as substrate incubated for 1 hr by mobility shift assay
[19] = molecular target: Hepatocyte growth factor receptor (Homo sapiens, UniProt P08581); assay: Inhibition of N-terminal GST-tagged human c-MET cytoplasmic domain (956 to 1390 residues) expressed in Baculovirus expression system using srctide as substrate incubated for 1 hr by mobility shift assay
[20] = molecular target: T1, Proto-oncogene tyrosine-protein kinase ROS; remark: listed apart in the source
Homo sapiens [21] = species: Homo sapiens; assay: Selectivity index, ratio of IC50 for FGFR (unknown origin) to IC50 for N-terminal GST-tagged human ALK cytoplasmic domain (1058 to 1620 residues)
[22] = molecular target: Tyrosine-protein kinase JAK2 (Homo sapiens, UniProt O60674); assay: Inhibition of N-terminal GST-tagged human JAK2 catalytic domain (826 to 1132 residues) expressed in Baculovirus expression system using srctide as substrate incubated for 1 hr by mobility shift assay
[23] = Tmax in Sprague-Dawley rat at 10 mg/kg, po by UPLC/MS/MS analysis; format: ADME, organism-based; settings: in vivo
[24] = AUCinfinity in Sprague-Dawley rat at 10 mg/kg, po by UPLC/MS/MS analysis; format: ADME, organism-based; set-up: dose 10 mg/kg, route oral, time infinity; settings: in vivo
[25] = molecular target: Proto-oncogene tyrosine-protein kinase receptor Ret (Homo sapiens, UniProt P07949); assay: Inhibition of N-terminal GST-tagged human RET cytoplasmic domain (658 to 1114 residues) expressed in baculovirus expression system using CSKtide as substrate incubated for 1 hr by mobility shift assay
Homo sapiens [26] = species: Homo sapiens; assay: Selectivity index, ratio of IC50 for N-terminal GST-tagged full length human CDK4 (1 to 303 residues) to IC50 for N-terminal GST-tagged human ALK cytoplasmic domain (1058 to 1620 residues)
[27] = system: ALK tyrosine kinase receptor (Homo sapiens), Q9UM73 [G1202R]; assay: Potency index, ratio of IC50 for ceritinib to IC50 for test compound for inhibition of N-terminal GST-tagged human ALK G1202R mutant cytoplasmic domain (1058 to 1620 residues) expressed in baculovirus expression system using srctide as substrate incubated for 1 hr by mobility shift assay
Sequence of ALK tyrosine kinase receptor (Homo sapiens), Q9UM73 [G1202R] (Q9UM73 whole entry G1202R, the tested form may be a part): as the sequence (Q9UM73 whole entry) above, with G1202R counted along it

[28] = AUCt in Sprague-Dawley rat at 2 mg/kg, iv by UPLC/MS/MS analysis; format: ADME, organism-based; settings: in vivo
Homo sapiens [29] = species: Homo sapiens; assay: Selectivity index, ratio of IC50 for N-terminal GST-tagged human IGF1R cytoplasmic domain (959 to 1367 residues) to IC50 for N-terminal GST-tagged human ALK cytoplasmic domain (1058 to 1620 residues)
[30] = Biovailability in Sprague-Dawley rat at 2 mg/kg, iv by UPLC/MS/MS analysis; format: ADME, organism-based; settings: in vivo
[31] = Half life in Sprague-Dawley rat at 2 mg/kg, iv by UPLC/MS/MS analysis; format: ADME, organism-based; settings: in vivo
Homo sapiens [32] = species: Homo sapiens; assay: Selectivity index, ratio of IC50 for N-terminal GST-tagged human c-MET cytoplasmic domain (956 to 1390 residues) to IC50 for N-terminal GST-tagged human ALK cytoplasmic domain (1058 to 1620 residues)
[33] = molecular target: Fibroblast growth factor receptor (Homo sapiens, UniProt P22607+P11362+P22455+P21802); assay: Inhibition of FGFR (unknown origin) incubated for 1 hr by mobility shift assay; format: protein assay
[34] = Volume of distribution in Sprague-Dawley rat at 2 mg/kg, iv by UPLC/MS/MS analysis; format: ADME, organism-based; settings: in vivo
in vivo = settings: Sprague-Dawley, rat, po, 10 mg/kg
[35] = molecular target: T2, ALK tyrosine kinase receptor; assay: Inhibition of ALK phosphorylation in human H2228 cells incubated for 24 hrs by Western blot analysis; format: cell-based
Target sequence in this assay (Q9UM73 19-1620 limits assumed): as the sequence (Q9UM73 19-1620 G1202R limits assumed) above, with R1184G counted along it

[36] = Oral bioavailability in Sprague-Dawley rat at 10 mg/kg by UPLC/MS/MS analysis; format: ADME, organism-based; settings: in vivo

SMILES: COc1cc(N2CCN(CCCN)C2=O)ccc1Nc1ncc(Cl)c(Nc2ccccc2S(=O)(=O)C(C)C)n1
IC50 [1]: 5.3 nM
IC50 (KARPAS-299): 170 nM
IC50 (BaF3 [2]): 94 nM
IC50 (NCI-H2228): 530 nM
IC50 [3]: 11.9 nM
IC50 (A549 [4]): 1980 nM
IC50 [5]: > 1000 nM
IC50 (HCC78): 160 nM
IC50 (A549 [6]): > 5000 nM
IC50 [7]: 4.7 nM
IC50 [8]: 5.1 nM
IC50 (BaF3 [9]): > 5000 nM

SMILES: COc1cc(N2CCN(CC(=O)N(C)C)C2=O)ccc1Nc1ncc(Cl)c(Nc2ccccc2S(=O)(=O)C(C)C)n1
IC50 [1]: 0.97 nM
IC50 (KARPAS-299): 95 nM
IC50 (BaF3 [2]): 1380 nM
IC50 (NCI-H2228): 530 nM
IC50 [3]: 23.4 nM
IC50 (A549 [4]): 1230 nM
IC50 [5]: 598 nM
IC50 (HCC78): 93 nM
IC50 (A549 [6]): 2300 nM
IC50 [7]: 6.7 nM
IC50 [8]: 3.7 nM
IC50 (BaF3 [9]): > 5000 nM

SMILES: COc1cc(N2CCN(CC(=O)N3CCN(C)CC3)C2=O)ccc1Nc1ncc(Cl)c(Nc2ccccc2S(=O)(=O)C(C)C)n1
IC50 [1]: 0.81 nM
IC50 (KARPAS-299): 39 nM
IC50 (BaF3 [2]): 69 nM
IC50 (NCI-H2228): 41 nM
IC50 [3]: 10.3 nM
IC50 (A549 [4]): 94 nM
IC50 [5]: > 1000 nM
IC50 (HCC78): 87 nM
IC50 (A549 [6]): 1720 nM
IC50 [7]: 2.1 nM
IC50 [8]: 0.87 nM
IC50 (BaF3 [9]): > 5000 nM

IC50 (KARPAS-299): 150 nM
IC50 (BaF3 [2]): 2790 nM
IC50 (NCI-H2228): 230 nM
IC50 (A549 [4]): 2410 nM
IC50 (HCC78): 77 nM
IC50 (A549 [6]): 4120 nM
IC50 (BaF3 [9]): > 5000 nM
SMILES: COc1cc(N2CCN(CC(=O)NCC#N)C2=O)ccc1Nc1ncc(Cl)c(Nc2ccccc2S(=O)(=O)C(C)C)n1

IC50 (KARPAS-299): 760 nM
IC50 (BaF3 [2]): 3450 nM
IC50 (NCI-H2228): 1530 nM
IC50 (A549 [4]): 2110 nM
IC50 (HCC78): 1570 nM
IC50 (A549 [6]): > 5000 nM
IC50 (BaF3 [9]): > 5000 nM
SMILES: CCOC(=O)CN1CCN(c2ccc(Nc3ncc(Cl)c(Nc4ccccc4S(=O)(=O)C(C)C)n3)c(OC)c2)C1=O

IC50 (KARPAS-299): 390 nM
IC50 (BaF3 [2]): 2490 nM
IC50 (NCI-H2228): 150 nM
IC50 (A549 [4]): 1100 nM
IC50 (HCC78): 270 nM
IC50 (A549 [6]): 3100 nM
IC50 (BaF3 [9]): 4500 nM
SMILES: COc1cc(N2CCN(CC(=O)N3CCCC3)C2=O)ccc1Nc1ncc(Cl)c(Nc2ccccc2S(=O)(=O)C(C)C)n1

SMILES: COc1cc(N2CCN(CCN(C)C)C2=O)ccc1Nc1ncc(Cl)c(Nc2ccccc2S(=O)(=O)C(C)C)n1
IC50 [10]: 109 nM
IC50 [11]: 417 nM
IC50 [12]: > 1000 nM
AUC(0-t) [13]: 3420 ng·h/mL
IC50 [1]: 0.43 nM
half-life [14]: 7.4 h
AUC [15]: 1965.3 ng·h/mL
IC50 (KARPAS-299): 14 nM
IC50 (BaF3 [2]): 34 nM
inhibition [16]: Active
Cmax [17]: 252 ng/mL
IC50 (NCI-H2228): 37 nM
IC50 [18]: > 1000 nM
IC50 [19]: 213 nM
IC50 [3]: 6.7 nM
Ratio IC50 [20]: 7
Ratio IC50 (Homo sapiens [21]): 477
IC50 [22]: > 1000 nM
Tmax [23]: 5.3 h
AUC(0-inf) [24]: 4510 ng·h/mL
IC50 (A549 [4]): 73 nM
IC50 [25]: > 1000 nM
IC50 [5]: > 1000 nM
IC50 (HCC78): 29 nM
IC50 (A549 [6]): > 5000 nM
IC50 [7]: 1.2 nM
Ratio IC50 (Homo sapiens [26]): 348
Ratio IC50 [27]: 30
AUC(0-t) [28]: 1690 ng·h/mL
Ratio IC50 (Homo sapiens [29]): 91
F [30]: 100%
IC50 [8]: 0.73 nM
IC50 (BaF3 [9]): 3130 nM
half-life [31]: 6.9 h
Ratio IC50 (Homo sapiens [32]): 178
IC50 [33]: 573 nM
Vd [34]: 9.93 L/kg
Cmax (in vivo): 297 ng/mL
inhibition [35]: Dose-dependent effect
bioavailability [36]: 23%
